Experimental data reported in article PMC4286029 (Inflammation Research, 2014).

How the values were obtained:
[1] = target: T1, JNK1α1 (Homo sapiens, UniProt P45983); assay: KinaseProfiler selectivity: JNK1α1; assay type: biochemical
T1 construct: purchased Millipore Co. Ltd. (KinaseProfiler service)
Experimental: (§1) […]; The selectivity of JTE-052 for other kinases was assessed using KinaseProfiler™ (Millipore Co. Ltd.). […].

[2] = target: T2, PKCγ (Homo sapiens, UniProt P05129); assay: KinaseProfiler selectivity: PKCγ; assay type: biochemical
T2 construct: purchased Millipore Co. Ltd. (KinaseProfiler service)
Experimental: as §1

[3] = target: T3, Tie2 (Homo sapiens, UniProt Q02763); assay: KinaseProfiler selectivity: Tie2; assay type: biochemical
T3 construct: purchased Millipore Co. Ltd. (KinaseProfiler service)
Experimental: as §1

[4] = target: T4, ZAP-70 (Homo sapiens, UniProt P43403); assay: KinaseProfiler selectivity: ZAP-70; assay type: biochemical
T4 construct: purchased Millipore Co. Ltd. (KinaseProfiler service)
Experimental: as §1

[5] = system: GM-CSF signaling (JAK2/JAK2), Stat5 phosphorylation in hPBMCs; assay: cells; conditions: Homo sapiens, 0.25 h, read-out: IC50, GM-CSF cytokine signaling (JAK2/JAK2)
Experimental: (§2) hPBMCs (3 × 10^6 cells/tube) were incubated with a test compound for 30 min at 37 °C, and then treated with IL-2 (100 ng/mL), IL-6 (100 ng/mL), IL-23 (100 ng/mL), IFN-α (100 ng/mL), or GM-CSF (1 ng/mL) for an additional 15 min. To terminate the stimulation, the cells were fixed with Fixation Buffer (BD Biosciences) for 10 min at 37 °C. The fixed cells were incubated with Perm Buffer II (BD Biosciences) for 30 min on ice and then incubated with fluorochrome-labeled anti-CD3, anti-CD4, or anti-phospho-Stat antibodies for 30 min at room temperature. The cytokine-induced Stat phosphorylation was analyzed and quantified using a Cytomics FC500 (Beckman Coulter Inc., Brea, CA). In the case of IL-23 stimulation, hPBMCs were precultured with 10 μg/mL phytohemagglutinin (PHA)-M (Sigma-Aldrich Co.) for 3 days to enhance their response to IL-23.
(§3) The phosphorylation levels of Stat5 (IL-2 and GM-CSF), Stat3 (IL-6 and IL-23), or Stat1 (IFN-α) in CD3^+CD4^+ cells (IL-2, IL-23, and IFN-α) or CD3^-CD4^+ cells (IL-6 and GM-CSF) were analyzed by flow cytometry. Data are presented as percentages of mean fluorescence intensity relative to vehicle (100 %) and non-stimulated control cells (0 %). Values are mean ± SEM. Three independent experiments were performed

[6] = system: IFN-α signaling (JAK1/Tyk2), Stat1 phosphorylation in hPBMCs; assay: cells; conditions: Homo sapiens, 0.25 h, read-out: IC50, IFN-α cytokine signaling (JAK1/Tyk2)
Experimental: as §2, §3

[7] = system: IL-2 signaling (JAK1/JAK3), Stat5 phosphorylation in hPBMCs; assay: cells; conditions: Homo sapiens, 0.25 h, read-out: IC50, IL-2 cytokine signaling (JAK1/JAK3)
Experimental: as §2, §3

[8] = system: IL-23 signaling (JAK2/Tyk2), Stat3 phosphorylation in hPBMCs; assay: cells; conditions: Homo sapiens, 0.25 h, read-out: IC50, IL-23 cytokine signaling (JAK2/Tyk2)
Experimental: as §2, §3

[9] = system: IL-6 signaling (JAK1/JAK2), Stat3 phosphorylation in hPBMCs; assay: cells; conditions: Homo sapiens, 0.25 h, read-out: IC50, IL-6 cytokine signaling (JAK1/JAK2)
Experimental: as §2, §3

T1 sequence (P45983 1-384 isoform P45983-2, species assumed): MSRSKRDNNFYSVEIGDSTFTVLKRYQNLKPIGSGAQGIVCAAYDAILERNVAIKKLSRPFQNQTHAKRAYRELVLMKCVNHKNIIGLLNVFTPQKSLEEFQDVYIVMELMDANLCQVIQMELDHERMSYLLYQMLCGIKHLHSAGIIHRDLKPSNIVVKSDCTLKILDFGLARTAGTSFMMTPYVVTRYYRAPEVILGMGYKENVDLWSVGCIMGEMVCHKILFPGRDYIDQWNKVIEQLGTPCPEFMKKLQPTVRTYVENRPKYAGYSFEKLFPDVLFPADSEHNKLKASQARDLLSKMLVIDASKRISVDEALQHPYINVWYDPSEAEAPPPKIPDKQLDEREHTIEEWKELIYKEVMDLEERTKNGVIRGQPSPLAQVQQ
T3 sequence (Q02763 23-1124): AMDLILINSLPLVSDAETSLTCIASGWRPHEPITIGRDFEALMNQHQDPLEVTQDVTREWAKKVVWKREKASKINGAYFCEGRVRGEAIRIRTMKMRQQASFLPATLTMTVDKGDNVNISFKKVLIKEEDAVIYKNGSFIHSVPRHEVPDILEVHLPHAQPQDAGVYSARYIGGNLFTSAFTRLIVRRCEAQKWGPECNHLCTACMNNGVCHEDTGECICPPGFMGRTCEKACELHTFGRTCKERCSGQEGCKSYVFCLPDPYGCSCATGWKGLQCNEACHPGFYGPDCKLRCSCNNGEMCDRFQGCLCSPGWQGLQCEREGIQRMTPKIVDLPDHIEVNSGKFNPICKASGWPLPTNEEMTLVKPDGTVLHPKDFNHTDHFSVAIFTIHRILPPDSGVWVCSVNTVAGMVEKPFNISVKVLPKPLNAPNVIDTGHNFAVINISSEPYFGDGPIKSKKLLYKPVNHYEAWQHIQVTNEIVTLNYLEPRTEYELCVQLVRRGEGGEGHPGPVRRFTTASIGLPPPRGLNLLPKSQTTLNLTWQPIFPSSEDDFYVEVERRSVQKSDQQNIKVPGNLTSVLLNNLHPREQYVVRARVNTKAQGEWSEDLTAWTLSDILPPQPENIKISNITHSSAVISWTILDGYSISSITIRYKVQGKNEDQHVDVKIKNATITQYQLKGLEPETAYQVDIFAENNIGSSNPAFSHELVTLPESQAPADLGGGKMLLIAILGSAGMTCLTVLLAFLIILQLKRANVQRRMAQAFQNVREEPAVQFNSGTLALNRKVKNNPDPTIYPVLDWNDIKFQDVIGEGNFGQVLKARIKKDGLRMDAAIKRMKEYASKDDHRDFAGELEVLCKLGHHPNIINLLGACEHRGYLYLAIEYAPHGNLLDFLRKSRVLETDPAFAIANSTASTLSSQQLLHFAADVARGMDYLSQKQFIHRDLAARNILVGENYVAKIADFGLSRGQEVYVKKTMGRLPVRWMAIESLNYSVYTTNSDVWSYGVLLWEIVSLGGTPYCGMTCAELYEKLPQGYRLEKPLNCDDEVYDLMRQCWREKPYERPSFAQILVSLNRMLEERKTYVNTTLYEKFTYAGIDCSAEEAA
T4 sequence (P43403 whole entry): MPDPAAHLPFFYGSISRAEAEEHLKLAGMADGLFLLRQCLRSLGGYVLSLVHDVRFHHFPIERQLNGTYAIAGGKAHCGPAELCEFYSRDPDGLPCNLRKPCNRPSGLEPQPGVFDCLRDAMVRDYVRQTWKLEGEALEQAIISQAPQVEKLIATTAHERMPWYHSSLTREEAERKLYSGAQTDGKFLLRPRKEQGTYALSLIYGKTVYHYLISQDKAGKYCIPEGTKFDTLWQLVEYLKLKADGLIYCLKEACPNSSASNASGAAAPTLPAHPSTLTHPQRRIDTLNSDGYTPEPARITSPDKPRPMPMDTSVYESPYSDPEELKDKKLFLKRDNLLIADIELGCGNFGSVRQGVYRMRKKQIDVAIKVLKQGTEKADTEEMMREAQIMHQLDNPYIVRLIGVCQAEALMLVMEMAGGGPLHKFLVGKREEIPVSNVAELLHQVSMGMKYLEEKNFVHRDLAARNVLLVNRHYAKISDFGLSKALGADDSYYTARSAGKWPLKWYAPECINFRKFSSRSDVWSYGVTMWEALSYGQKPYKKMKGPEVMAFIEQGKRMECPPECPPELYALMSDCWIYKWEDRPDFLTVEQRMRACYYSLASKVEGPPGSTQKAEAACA

C[C@H]1CN(C(=O)CC#N)[C@]12CCN(c1ncnc3[nH]ccc13)C2 [JTE-052]
IC50 [1]: > 1 µM | IC50 [2]: > 1 µM | IC50 [3]: > 1 µM | IC50 [4]: > 1 µM | IC50 [5]: 0.304 ± 0.022 µM | IC50 [6]: 0.018 ± 0.003 µM | IC50 [7]: 0.04 ± 0.009 µM | IC50 [8]: 0.084 ± 0.011 µM | IC50 [9]: 0.033 ± 0.014 µM
